According to patent US20250009716A1, “NOVEL INHIBITORS OF CLAUDIN-1 FOR THERAPEUTIC INTERVENTIONS” (BOARD OF REGENTS OF THE UNIVERSITY OF NEBRASKA, priority 2021, published 2025):

Columns and labels:
[1] = Tissue distribution after i.v. dose; format: in vivo, mice
Description: (§1) To determine the in vivo characteristics of this drug, a pharmacokinetic and tissue distribution study on 16 was performed. Following a single i.v. dose of 16 (1 mg/kg) in mice (C57B/16; n=5), serial blood samples were obtained at 0.08, 0.25, 0.75, 2, 4, 6, 8 and 24 hours after the injection and plasma samples were analyzed for 16 concentrations. Pharmacokinetic parameter values were obtained from the plasma concentration-time data using standard non-compartmental methods (WinNonlin, PharSight Corp). […] To assess the tissue distribution of 16, mice were sacrificed at 2, 8 and 24 hours after the i.v. administration of the drug. Measurable concentrations of 16 were detected in all studied tissues at 2, 8, and 24 h. […] Next, metabolic stability studies of 16 was evaluated using mouse liver S9 fractions for the in vitro assessment of phase I and II metabolism. […] Testosterone, 7-HC and diclofenac were used as positive controls, ensuring proper incubation conditions were maintained. […] The results of these in vitro drug metabolism studies guided the rational development of 16 structural analogs.
Eight-week-old healthy Balb/c mice (male and female) mice were utilized for the pharmacokinetic and biodistribution studies. In this section, up to two different administration routes (oral or IP) were evaluated for each selected drug product. The specified drug and dose were administered to a 25 g mouse. A total of 36 mice were used for each compound tested. Blood was collected by cheek bleeding at selected times between 0-168 h post-injection. Liver, spleen, kidney, brain and bone marrow were harvested at terminal time points (2, 8, 24, 48, 72 h). Tissue samples were collected and processed for bioanalysis. The drug concentration in blood and tissues was measured by LC-MS/MS using methods developed during preliminary studies and validated according to FDA guidance. Drug accumulation in tissue was assessed by calculating a tissue to plasma concentration ratio (Kp), an indicator of drug accumulation (FIGS. 6A, 6B, 7, and 38).

[2] = Pharmacokinetics after single i.v. dose; format: in vivo, mice
Description: as §1
Pharmacokinetic parameter values were estimated from the plasma concentration-time data using standard noncompartmental methods and software (WinNonlin, PharSight Corp). […] Terminal elimination half-life (t1/2) was calculated by dividing 0.693 by terminal elimination rate constant Iz. Drug clearance (Cl) was calculated using standard equations. Area under the plasma concentration-time curve from 0 to 24 hours (AUCO-24) was calculated with the linear-log trapezoidal rule. The area under the plasma concentration-time curve from 0 to infinity (AUCO-infinity) was calculated as AUCO-24+C24/Iz. The absolute bioavailability (F) was calculated as the ratio between the AUCO-infinity from oral and intravenous routes using standard equations (FIG. 39).

[3] = Phase I metabolism in human liver microsomes; format: in vitro ADME; details: 60 minutes, compared to 16
Text: The result of the metabolic stability study was expressed as the % drug conc. remaining.
(§2) To this end, a library of molecules was synthesized in order to develop an initial SAR evaluation. The first compounds tested eliminated the acylated (thio) urea as well as the napthyl group and evaluated just the urea/phenyl compounds (Compounds 1-6). The methoxy group of the naphthalene ring system was needed when the benzimidazole group was present (16 vs. Compound 8). […] The result of metabolic stability was expressed as the percentage of drug remaining at each time. […] To further determine the effect of PDS-0330 on p-Src expression and association, cells were treated with Compound 1, 16 and PDS-0330. Expression and association with p-Src was unaffected with Compound 1 (negative control). The specificity of PDS-0330 for CLDN1 was further confirmed by treating SW480^CLDN1, HCT116^CLDN2 (overexpressing another tight junction protein) or normal IEC-6 cells with PDS-0330 (FIG. 12).
Metabolic stability and reaction phenotyping: The in vitro metabolic stability of studies was determined using mice and human liver microsomes and S9 fractions (XenoTech, LLC, Lenexa, KS, USA) following standard protocols (33, 35, 36). […] Drug concentrations were determined using LC-MS/MS. […] UGTs are analyzed in Corning® Supersomes™ if incubation of HLMs with UDPGA also results in metabolite formation.

SW480CLDN1 cells = experiment: Cell viability, specificity for CLDN1; format: cell-based
Description: (§3) SW480^claudin-1, IEC-6 (normal cells), and HCT116^CLDN2 cells were treated with different concentrations of PDS-0330 and cell viability was determined.
as §2

HCT116CLDN2 cells = experiment: Cell viability, specificity for CLDN1; format: cell-based; details: cells overexpressing another tight junction protein
Description: as §3, §2

IEC-6 (normal cells) = experiment: Cell viability, specificity for CLDN1; format: cell-based
Description: as §3, §2

Row | SMILES | descending order of Kp ratios ([1]; 1 mg/kg i.v.) | tissue concentrations ([1]; 2, 8 and 24 h after 1 mg/kg i.v.) | Kp ([1]; C57B/16, mouse, iv, all tissues except brain, 1 mg/kg i.v., read-out: tissue to plasma concentration ratio (Kp)) | clearance ([2]; 1 mg/kg i.v.) [mL/min/kg] | time up to which detectable in plasma ([2]; 1 mg/kg i.v.) | peak concentration ([2]; 1 mg/kg i.v., plasma) [ng/mL] | mouse behavior or weight ([2]; 24 hours after single i.v. injection) | AUC ([2]; C57B/16, mouse, iv, 1 mg/kg i.v., plasma) [ng·h/mL] | half-life ([2]; C57B/16, mouse, plasma, iv, 1 mg/kg i.v., read-out: elimination t1/2 (converted)) [h] | Vd ([2]; C57B/16, mouse, plasma, iv, 1 mg/kg i.v., read-out: volume of distribution) [L/kg] | metabolic stability [3] | percentage of dead cells (SW480CLDN1 cells) | effect on cell viability (HCT116CLDN2 cells) | effect on cell viability (IEC-6 (normal cells))
1 | COc1cc2ccccc2cc1C(=O)NC(=S)Nc1ccc(-c2nc3ccccc3[nH]2)cc1 [Compound 16] | lungs>liver>spleen>kidney>heart>>brain | higher concentrations in the lung and liver tissue | ≥ 1 | 13 | up to 24 hrs | 798 | no change in mouse behavior or weight | 1210 | 7 | 8.4 |  |  |  | 
2 | O=C(NC(=S)Nc1ccc(-c2nc3ccccc3o2)cc1)c1ccc2ccccc2c1 [PDS-0330] |  |  |  |  |  |  |  |  |  |  | metabolically stable over 60 minutes | significant increase in the percentage of dead cells | not affected | not affected
